This experiment deals with BTK (Homo sapiens (Human), UniProt Q06187). Briefly: Btk in vitro inhibitory activity (one of Method A TR-FRET, Method B electrophoretic mobility shift, Method C radiometric filter binding). Format: biochemical.
[1] abbreviates: determined using one of the methods of Example 355a, 355b and 355c, read-out: BTK IC50.

The results in this text go back to US9656988B2 (Pharmacyclics LLC, priority 2013, dated 2017).

SMILES strings stand for the structures. Where two headings read alike, the source gives them in different places.

BTK, sequence (Q06187 whole entry): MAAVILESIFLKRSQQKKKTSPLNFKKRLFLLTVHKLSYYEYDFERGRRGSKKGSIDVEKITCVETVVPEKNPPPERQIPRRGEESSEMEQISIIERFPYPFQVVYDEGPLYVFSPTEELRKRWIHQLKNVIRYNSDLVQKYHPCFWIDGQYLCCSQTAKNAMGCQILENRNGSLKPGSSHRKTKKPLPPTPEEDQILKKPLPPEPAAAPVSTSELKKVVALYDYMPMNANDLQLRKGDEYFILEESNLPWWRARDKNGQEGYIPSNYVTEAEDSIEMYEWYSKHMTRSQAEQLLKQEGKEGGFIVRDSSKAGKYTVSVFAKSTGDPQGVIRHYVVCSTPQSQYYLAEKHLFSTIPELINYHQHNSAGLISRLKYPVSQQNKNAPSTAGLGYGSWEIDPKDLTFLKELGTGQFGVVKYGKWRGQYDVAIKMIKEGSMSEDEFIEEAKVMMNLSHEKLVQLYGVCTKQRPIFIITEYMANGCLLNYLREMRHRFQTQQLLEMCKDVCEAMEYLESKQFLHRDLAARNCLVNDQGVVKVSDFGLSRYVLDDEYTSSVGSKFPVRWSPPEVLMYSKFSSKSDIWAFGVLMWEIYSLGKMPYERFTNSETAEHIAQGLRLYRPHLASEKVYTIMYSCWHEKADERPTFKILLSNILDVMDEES

For `NC(=O)c1ncc(N2CCC[C@@H](NC(=O)c3ccc(Cl)s3)C2)nc1Nc1ccc(C2CCN(C3CC3)CC2)cc1` [Example 314, (R)-5-(3-(5-chlorothiophene-2-carboxamido)piperidin-1-yl)-3-(4-(1-cyclopropylpiperidin-4-yl)phenylamino)pyrazine-2-carboxamide], the IC50 under setting [1] lay in the range of 0.01 to 0.1 µM.

Take `NC(=O)c1ncc(N2CCC[C@@H](NC(=O)c3cc4ccccc4s3)C2)nc1Nc1ccc(C2CCN(C3CC3)CC2)cc1` [Example 315, (R)-5-(3-(benzo[b]thiophene-2-carboxamido)piperidin-1-yl)-3-(4-(1-cyclopropylpiperidin-4-yl)phenylamino)pyrazine-2-carboxamide]: the half-maximal inhibitory concentration (IC50) was in the range of 0.01 to 0.1 µM. Under setting [1], the IC50 was 0.01 to 0.1 µM.

Turning to `NC(=O)c1ncc(N2CCC[C@@H](NC(=O)c3cc4c(s3)CCCC4)C2)nc1Nc1ccc(C2CCN(C3CC3)CC2)cc1` [Example 316, (R)-3-(4-(1-cyclopropylpiperidin-4-yl)phenylamino)-5-(3-(4,5,6,7-tetrahydrobenzo[b]thiophene-2-carboxamido)piperidin-1-yl)pyrazine-2-carboxamide], under setting [1], the IC50 was less than 0.01 µM.

As to `NC(=O)c1ncc(N2CCC[C@@H](NC(=O)c3ccc4ccccc4c3)C2)nc1Nc1ccc(C2CCN(C3CC3)CC2)cc1` [Example 317, (R)-5-(3-(2-naphthamido)piperidin-1-yl)-3-(4-(1-cyclopropylpiperidin-4-yl)phenylamino)pyrazine-2-carboxamide], the IC50 under setting [1] lay in the range of 0.01 to 0.1 µM.

As to `NC(=O)c1ncc(N2CCC[C@@H](NC(=O)c3ccc(-c4ccccc4)cc3)C2)nc1Nc1ccc(C2CCN(C3CC3)CC2)cc1` [Example 318, (R)-5-(3-biphenyl-4-ylcarboxamidopiperidin-1-yl)-3-(4-(1-cyclopropylpiperidin-4-yl)phenylamino)pyrazine-2-carboxamide], the IC50 under setting [1] lay in the range of 0.01 to 0.1 µM.

As for `NC(=O)c1ncc(N2CCC[C@@H](NC(=O)c3ccc(-c4ccccc4)nc3)C2)nc1Nc1ccc(C2CCN(C3CC3)CC2)cc1` [Example 319, (R)-3-(4-(1-cyclopropylpiperidin-4-yl)phenylamino)-5-(3-(6-phenylnicotinamido)piperidin-1-yl)pyrazine-2-carboxamide], the IC50 under setting [1] was less than 0.01 µM.

`NC(=O)c1ncc(N2CCC[C@@H](NC(=O)c3ccc(F)cc3)C2)nc1Nc1ccc(C2CCN(C3CCCC3)CC2)cc1` [Example 320, (R)-3-(4-(1-cyclopentylpiperidin-4-yl)phenylamino)-5-(3-(4-fluorobenzamido)piperidin-1-yl)pyrazine-2-carboxamide]: the IC50 is less than 0.01 µM under setting [1] and less than 0.01 µM (read-out: Btk (IC50)).

As to `CN(C(=O)N[C@@H]1CCCN(c2cnc(C(N)=O)c(Nc3ccc(F)cc3)n2)C1)c1cc(Cl)cc(C(F)(F)F)c1` [Example 322, (R)-5-(3-(3-(3-chloro-5-(trifluoromethyl)phenyl)-3-methylureido)piperidin-1-yl)-3-(4-fluorophenylamino)pyrazine-2-carboxamide], the IC50 is 0.1 to 1 µM under setting [1] and 0.1 to 1 µM (read-out: Btk (IC50)).

In the case of `CN(C(=O)N[C@@H]1CCCN(c2cnc(C(N)=O)c(Nc3ccc(C4(C#N)CC4)cc3)n2)C1)c1cc(Cl)cc(C(F)(F)F)c1` [Example 323, (R)-5-(3-(3-(3-chloro-5-(trifluoromethyl)phenyl)-3-methylureido)piperidin-1-yl)-3-(4-(1-cyanocyclopropyl)phenylamino)pyrazine-2-carboxamide], the IC50 is, setting by setting: under setting [1], 0.1 to 1 µM; (read-out: Btk (IC50)) 0.1 to 1 µM.

Take `CN(C(=O)N[C@@H]1CCCN(c2cnc(C(N)=O)c(Nc3ccc(C4(C(N)=O)CC4)cc3)n2)C1)c1cc(Cl)cc(C(F)(F)F)c1` [Example 324, (R)-3-(4-(1-carbamoylcyclopropyl)phenylamino)-5-(3-(3-(3-chloro-5-(trifluoromethyl)phenyl)-3-methylureido)piperidin-1-yl)pyrazine-2-carboxamide]: the IC50 under setting [1] was 0.01 to 0.1 µM and the IC50 (read-out: Btk (IC50)) is 0.01 to 0.1 µM.

`NC(=O)c1ncc(N2CCC[C@@H](NC(=O)c3ccc4nccn4c3)C2)nc1Nc1ccc(C2CCOCC2)cc1` [Example 325, (R)—N-(1-(5-carbamoyl-6-(4-(tetrahydro-2H-pyran-4-yl)phenylamino)pyrazin-2-yl)piperidin-3-yl)imidazo[1,2-a]pyridine-6-carboxamide]: the IC50 was less than 0.01 µM under setting [1] and less than 0.01 µM (read-out: Btk (IC50)).

Take `CN(C)C(=O)N[C@@H]1CCCCN(c2cnc(C(N)=O)c(Nc3ccc(C4CCN(C5CCCC5)CC4)cc3)n2)C1` [Example 327, (R)-3-(4-(1-cyclopentylpiperidin-4-yl)phenylamino)-5-(3-(3,3-dimethylureido)azepan-1-yl)pyrazine-2-carboxamide]: the IC50 reads like this: under setting [1], less than 0.01 µM; (read-out: Btk (IC50)) less than 0.01 µM.

Regarding `NC(=O)c1ncc(N2CCCC[C@@H](NC(=O)C3CC3)C2)nc1Nc1ccc(C2CCN(C3CCCC3)CC2)cc1` [Example 328, (R)-3-(4-(1-cyclopentylpiperidin-4-yl)phenylamino)-5-(3-(cyclopropanecarboxamido)azepan-1-yl)pyrazine-2-carboxamide], the IC50 is less than 0.01 µM under setting [1] and less than 0.01 µM (read-out: Btk (IC50)).

On to `CN(C)C(=O)N[C@@H]1CCCN(c2nnc(C(N)=O)c(Nc3ccc(C4CCN(C5CCCC5)CC4)cc3)n2)C1` [Example 329, (R)-5-(4-(1-cyclopentylpiperidin-4-yl)phenylamino)-3-(3-(3,3-dimethylureido)piperidin-1-yl)-1,2,4-triazine-6-carboxamide], for which the IC50 (Btk (IC50)) is less than 0.01 µM and the IC50 under setting [1] is less than 0.01 µM.

With `CCC(=O)N[C@@H]1CCCN(c2nnc(C(N)=O)c(Nc3ccc(C4CCN(C5CCCC5)CC4)cc3)n2)C1` [Example 330, (R)-5-(4-(1-cyclopentylpiperidin-4-yl)phenylamino)-3-(3-propionamidopiperidin-1-yl)-1,2,4-triazine-6-carboxamide], the IC50 runs as follows: under setting [1], less than 0.01 µM; (read-out: Btk (IC50)) less than 0.01 µM.

As for `COc1ccc(C(=O)N[C@@H]2CCCN(c3nnc(C(N)=O)c(Nc4ccc(N5CCN(C6CCCC6)CC5)cc4)n3)C2)cc1` [Example 331, (R)-5-(4-(4-cyclopentylpiperazin-1-yl)phenylamino)-3-(3-(4-methoxybenzamido)piperidin-1-yl)-1,2,4-triazine-6-carboxamide], under setting [1], the IC50 is less than 0.01 µM.

In the case of `COc1ccc(C(=O)N[C@@H]2CCCN(c3nnc(C(N)=O)c(Nc4ccc(N5CCC(C(=O)N(C)C)CC5)cc4)n3)C2)cc1` [Example 332, (R)-5-(4-(4-(dimethylcarbamoyl)piperidin-1-yl)phenylamino)-3-(3-(4-methoxybenzamido)piperidin-1-yl)-1,2,4-triazine-6-carboxamide], the IC50 under setting [1] was less than 0.01 µM.

For `COc1ccc(C(=O)N[C@@H]2CCCN(c3nnc(C(N)=O)c(Nc4ccc(C5CCNCC5)cc4)n3)C2)cc1` [Example 333, (R)-3-(3-(4-methoxybenzamido)piperidin-1-yl)-5-(4-(piperidin-4-yl)phenylamino)-1,2,4-triazine-6-carboxamide], under setting [1], the IC50 is less than 0.01 µM.

As for `COc1ccc(C(=O)N[C@@H]2CCCN(c3nnc(C(N)=O)c(Nc4ccc(C5CCN(C6CCCC6)CC5)cc4)n3)C2)cc1` [Example 334, (R)-5-(4-(1-cyclopentylpiperidin-4-yl)phenylamino)-3-(3-(4-methoxybenzamido)piperidin-1-yl)-1,2,4-triazine-6-carboxamide], the IC50 under setting [1] was less than 0.01 µM.
